The source made the active and inactive calls. No cut-off for these calls is given here.
Experiments:
[1] = Competitive inhibition of P-gp assessed as P-gp-associated ATPase activity at 10 uM by Pgp-GloTM Assay
[2] = Noncompetitive inhibition of P-gp assessed as reduction in P-gp-associated ATPase activity by Pgp-GloTM Assay
[3] = tested on: K652; assay: Inhibition of P-gp-mediated rhodamine 123 efflux in doxorubicin-resistant human […] cells at 100 uM treated for 1 hr measured after washout by FACS flow cytometry relative to verapamil; type: cell-based

| Structure (SMILES) | inhibition [1] | inhibition [2] | fold change (FC) [3] |
| --- | --- | --- | --- |
| CN(C)[C@@H](CC(C)(C)C)C(=O)N1Cc2ccccc2C[C@H]1C(=O)NCCCC[C@H](NC(=O)[C@@H]1Cc2ccccc2CN1C(=O)[C@H](CC(C)(C)C)N(C)C)C(N)=O | Active | Active | 2 |
| CN(C)[C@@H](CC(C)(C)C)C(=O)N1Cc2ccccc2C[C@H]1C(=O)NCCCC[C@@H](NC(=O)[C@@H]1Cc2ccccc2CN1C(=O)[C@H](CC(C)(C)C)N(C)C)C(N)=O |  |  | 2 |
